Earlier results on one molecule are cited in patent US20120034273A1, “EXTRUDATE HAVING SPICULAR ACTIVE SUBSTANCES” (Bayer Animal Health GmbH, priority 2008, published 2012).

The conditions of the series: stated in words, no test described.

Take `O=C(C1CCCCC1)N1CC(=O)N2CCc3ccccc3C2C1` (stereo not shown) [praziquantel]: the solubility in water entry is recorded as “poorly soluble in water”.
